In the supplement of paper PMC10307832:

Columns and labels:
Assay in all cases: relative viability (nuclei count vs DMSO), 5 days (fraction); higher = more cells survive
[1] = test system: RERF-LC-KJ
Method in brief: (§1)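 Cells from lung cancer lines were seeded into 1536-well plates and, one day later, dosed by pin tool. Treatments were either a single drug or a fixed dose of an anchor drug with five library-drug doses (not always all listed) in √10 steps. After 5 days, nuclei were stained in a one-step fixation (final 0.05% Triton X-100, 1% formaldehyde, 1 ug/ml Hoechst) and counted on 4× images, and relative viability is the treated-to-vehicle nuclei ratio, as the median of duplicate plates.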

[2] = test system: NCI-H1793
Method in brief: as §1

[3] = test system: SK-LU-1
Method in brief: as §1

[4] = test system: NCI-H727
Method in brief: as §1

[5] = test system: BEN
Method in brief: as §1

[6] = test system: NCI-H1944
Method in brief: as §1

[7] = test system: HCC-827
Method in brief: as §1

[8] = test system: NCI-H1650
Method in brief: as §1

[9] = test system: NCI-H2405
Method in brief: as §1

[10] = test system: HOP-62
Method in brief: as §1

[11] = test system: 201T
Method in brief: as §1

[12] = test system: LCLC-97TM1
Method in brief: as §1

[13] = test system: LCLC-103H
Method in brief: as §1

[14] = test system: CAL-12T
Method in brief: as §1

[15] = test system: HCC-44
Method in brief: as §1

[16] = test system: NCI-H1395
Method in brief: as §1

[17] = test system: NCI-H2228
Method in brief: as §1

[18] = test system: NCI-H1437
Method in brief: as §1

[19] = test system: LXF-289
Method in brief: as §1

[20] = test system: NCI-H2087
Method in brief: as §1

[21] = test system: NCI-H3122
Method in brief: as §1

[22] = test system: NCI-H647
Method in brief: as §1

[23] = test system: NCI-H322M
Method in brief: as §1

O=C(O)c1ccc(-c2c[nH]c3ncc(-c4ccccc4)cc23)cc1C1CCCC1 + CC(=O)Nc1cccc(-n2c(=O)n(C3CC3)c(=O)c3c(Nc4ccc(I)cc4F)n(C)c(=O)c(C)c32)c1 [Trametinib] (partner 0.02 µM)
relative viability ([1]; first compound 0.04 µM): 0.916 | relative viability ([1]; first compound 0.1265 µM): 0.908 | relative viability ([1]; first compound 0.4 µM): 0.814 | relative viability ([1]; first compound 1.265 µM): 0.657 | relative viability ([2]; first compound 0.04 µM): 0.407 | relative viability ([2]; first compound 0.1265 µM): 0.51 | relative viability ([2]; first compound 0.4 µM): 0.497 | relative viability ([2]; first compound 1.265 µM): 0.34 | relative viability ([3]; first compound 0.04 µM): 0.522 | relative viability ([3]; first compound 0.1265 µM): 0.591 | relative viability ([3]; first compound 0.4 µM): 0.513 | relative viability ([3]; first compound 1.265 µM): 0.37 | relative viability ([4]; first compound 0.04 µM): 0.428 | relative viability ([4]; first compound 0.1265 µM): 0.428 | relative viability ([4]; first compound 0.4 µM): 0.379 | relative viability ([4]; first compound 1.265 µM): 0.428 | relative viability ([5]; first compound 0.04 µM): 1.19 | relative viability ([5]; first compound 0.1265 µM): 1.05 | relative viability ([5]; first compound 0.4 µM): 1.08 | relative viability ([5]; first compound 1.265 µM): 0.957 | relative viability ([6]; first compound 0.04 µM): 0.405 | relative viability ([6]; first compound 0.1265 µM): 0.437 | relative viability ([6]; first compound 0.4 µM): 0.487 | relative viability ([6]; first compound 1.265 µM): 0.37 | relative viability ([7]; first compound 0.04 µM): 0.574 | relative viability ([7]; first compound 0.1265 µM): 0.575 | relative viability ([7]; first compound 0.4 µM): 0.487 | relative viability ([7]; first compound 1.265 µM): 0.362 | relative viability ([8]; first compound 0.04 µM): 0.54 | relative viability ([8]; first compound 0.1265 µM): 0.684 | relative viability ([8]; first compound 0.4 µM): 0.758 | relative viability ([8]; first compound 1.265 µM): 0.49 | relative viability ([9]; first compound 0.04 µM): 0.64 | relative viability ([9]; first compound 0.1265 µM): 0.651 | relative viability ([9]; first compound 0.4 µM): 0.627 | relative viability ([9]; first compound 1.265 µM): 0.587 | relative viability ([10]; first compound 0.04 µM): 0.37 | relative viability ([10]; first compound 0.1265 µM): 0.407 | relative viability ([10]; first compound 0.4 µM): 0.412 | relative viability ([10]; first compound 1.265 µM): 0.376 | relative viability ([11]; first compound 0.04 µM): 0.703 | relative viability ([11]; first compound 0.1265 µM): 0.673 | relative viability ([11]; first compound 0.4 µM): 0.741 | relative viability ([11]; first compound 1.265 µM): 0.738 | relative viability ([12]; first compound 0.04 µM): 0.202 | relative viability ([12]; first compound 0.1265 µM): 0.204 | relative viability ([12]; first compound 0.4 µM): 0.173 | relative viability ([12]; first compound 1.265 µM): 0.207 | relative viability ([13]; first compound 0.04 µM): 0.65 | relative viability ([13]; first compound 0.1265 µM): 0.697 | relative viability ([13]; first compound 0.4 µM): 0.68 | relative viability ([13]; first compound 1.265 µM): 0.644 | relative viability ([14]; first compound 0.04 µM): 0.327 | relative viability ([14]; first compound 0.1265 µM): 0.372 | relative viability ([14]; first compound 0.4 µM): 0.369 | relative viability ([14]; first compound 1.265 µM): 0.333 | relative viability ([15]; first compound 0.04 µM): 1 | relative viability ([15]; first compound 0.1265 µM): 1.02 | relative viability ([15]; first compound 0.4 µM): 0.908 | relative viability ([15]; first compound 1.265 µM): 1.01 | relative viability ([16]; first compound 0.04 µM): 0.987 | relative viability ([16]; first compound 0.1265 µM): 1.09 | relative viability ([16]; first compound 0.4 µM): 1.02 | relative viability ([16]; first compound 1.265 µM): 0.957 | relative viability ([17]; first compound 0.04 µM): 0.548 | relative viability ([17]; first compound 0.1265 µM): 0.581 | relative viability ([17]; first compound 0.4 µM): 0.633 | relative viability ([17]; first compound 1.265 µM): 0.305 | relative viability ([18]; first compound 0.04 µM): 0.476 | relative viability ([18]; first compound 0.1265 µM): 0.609 | relative viability ([18]; first compound 0.4 µM): 0.541 | relative viability ([18]; first compound 1.265 µM): 0.202 | relative viability ([19]; first compound 0.04 µM): 0.625 | relative viability ([19]; first compound 0.1265 µM): 0.685 | relative viability ([19]; first compound 0.4 µM): 0.666 | relative viability ([19]; first compound 1.265 µM): 0.535 | relative viability ([20]; first compound 0.04 µM): 0.204 | relative viability ([20]; first compound 0.1265 µM): 0.209 | relative viability ([20]; first compound 0.4 µM): 0.179 | relative viability ([20]; first compound 1.265 µM): 0.205 | relative viability ([21]; first compound 0.04 µM): 0.196 | relative viability ([21]; first compound 0.1265 µM): 0.24 | relative viability ([21]; first compound 0.4 µM): 0.253 | relative viability ([21]; first compound 1.265 µM): 0.277 | relative viability ([22]; first compound 0.04 µM): 0.432 | relative viability ([22]; first compound 0.1265 µM): 0.477 | relative viability ([22]; first compound 0.4 µM): 0.478 | relative viability ([22]; first compound 1.265 µM): 0.389 | relative viability ([23]; first compound 0.04 µM): 0.482 | relative viability ([23]; first compound 0.1265 µM): 0.633 | relative viability ([23]; first compound 0.4 µM): 0.524 | relative viability ([23]; first compound 1.265 µM): 0.493
